Experimental data: ChEMBL document CHEMBL5034037, “Synthesis, Characterization, and Preclinical Evaluation of a Small-Molecule Prostate-Specific Membrane Antigen-Targeted Monomethyl Auristatin E Conjugate” (J Med Chem, 2021)
Activity calls are given as the source filed them. The calls are words filed in the database; no cut-off is given here. *1 amine or outer side, *2 acyl side, *3 side chain or, on linkers, in order; H or OH if unused. Where a SMILES comes first, the peptide text is derived from it. [ ]: non-standard residue; d: D form. The star is where a group is joined. GluureaLys(ε-3-ClBenzyl) = O=C(O)CC[C@H](NC(=O)N[C@@H](CCCCN(Cc1cccc(Cl)c1)*)C(=O)O)C(=O)O; Dolaproine = CO[C@@H]([C@@H]1CCCN1)[C@@H](C)C(=O)O; Dil = CC[C@H](C)[C@H](NC)[C@@H](CC(=O)O)OC; X1 = O=C(CCCc1cn(CCCN[*:1])nn1)[*:2]; PABC = O=C(OCc1ccc(N[*:1])cc1)[*:2]; X2 = C[C@@H](N*)[C@@H](O)c1ccccc1; Cit = NC(=O)NCCC[C@H](N)C(=O)O; Suc = O=C(CCC(=O)[*:2])[*:1]; NMeV = CN[C@H](C(=O)O)C(C)C; Ahx = NCCCCCC(=O)O

Tests used:
CWR22R = test: Cytotoxicity against human 22Rv1 cells expressing PMSA measured using MTT assay; assay type: functional
PC-3 [1] = test: Cytotoxicity against human PC-3 cells not expressing PMSA measured using MTT assay; assay type: functional
PC-3 [2] = test: Induction of intracellular reactive oxygen species production in human PC-3 cells incubated for 1 hr measured at CC50 concentration by amperometric method; assay type: functional, cell-based
[3] = AUC (0 to infinity) in Wistar rat at 1.5 mg/kg, iv; assay type: ADME, organism-based; design: time infinity, route intravenous, dose 1.5 mg/kg; details: in vivo
[4] = Toxicity in rabbit assessed as morphological changes in spleen at 81 to 122 microg/kg, iv; assay type: tissue-based, Oryctolagus cuniculus; details: in vivo, dose 81-122 µg/kg
[5] = Toxicity in rabbit assessed as morphological changes in loops of colon at 81 to 122 microg/kg, iv; assay type: tissue-based, Oryctolagus cuniculus; details: in vivo, dose 81-122 µg/kg
[6] = Toxicity in rat assessed as morphological changes in loops of colon at 150 to 225 microg/kg, iv; assay type: tissue-based; details: in vivo, dose 150-225 µg/kg
[7] = Toxicity in rabbit assessed as morphological changes in pancreas at 81 to 122 microg/kg, iv; assay type: tissue-based, Oryctolagus cuniculus; details: in vivo, dose 81-122 µg/kg
[8] = Toxicity in rat assessed as morphological changes in bronchi at 150 to 225 microg/kg, iv; details: in vivo, dose 150-225 µg/kg
[9] = Toxicity in rat assessed as morphological changes in mucosa of trachea at 150 to 225 microg/kg, iv; assay type: tissue-based; details: in vivo, dose 150-225 µg/kg
[10] = Toxicity in rat assessed as morphological changes in adrenal gland at 150 to 225 microg/kg, iv; assay type: tissue-based; details: in vivo, dose 150-225 µg/kg
[11] = Toxicity in rabbit assessed as morphological changes in adrenal gland at 81 to 122 microg/kg, iv; assay type: tissue-based, Oryctolagus cuniculus; details: in vivo, dose 81-122 µg/kg
Oryctolagus cuniculus = species: Oryctolagus cuniculus; test: Induction of morphological change in heart of rabbit; assay type: organism-based; details: in vivo
[12] = Toxicity in rat assessed as morphological changes in cerebrum at 150 to 225 microg/kg, iv; assay type: tissue-based; details: in vivo, dose 150-225 µg/kg
[13] = Toxicity in rat assessed as morphological changes in brain gyrus at 150 to 225 microg/kg, iv; assay type: tissue-based; details: in vivo, dose 150-225 µg/kg
[14] = Toxicity in rabbit assessed as morphological changes in brain gyrus at 81 to 122 microg/kg, iv; assay type: tissue-based, Oryctolagus cuniculus; details: in vivo, dose 81-122 µg/kg
[15] = Toxicity in rabbit assessed as morphological changes in brain ventricle at 81 to 122 microg/kg, iv; assay type: tissue-based, Oryctolagus cuniculus; details: in vivo, dose 81-122 µg/kg
[16] = Toxicity in rabbit assessed as morphological changes in urinary bladder at 81 to 122 microg/kg, iv; design: species or system Oryctolagus cuniculus; details: in vivo, dose 81-122 µg/kg
[17] = Toxicity in rabbit assessed as morphological changes in testes at 81 to 122 microg/kg, iv; design: species or system Oryctolagus cuniculus; details: in vivo, dose 81-122 µg/kg
[18] = Toxicity in rabbit assessed as histological change in spermatagonia in seminiferous tubule in testes at 81 to 122 microg/kg, iv; design: species or system Oryctolagus cuniculus; details: in vivo, dose 81-122 µg/kg
[19] = Toxicity in rabbit assessed as change in body weight at 0.3 mg/kg, iv measured after 20 days; assay type: organism-based, Oryctolagus cuniculus; details: in vivo, 480 h, time 20 day
[20] = Antitumor activity against human PC-3 cells xenografted in mouse assessed as tumour growth inhibition at 0.3 mg/kg, ip daily treated for 5 days after 18 days of tumor implantation measured upto 15 days; assay type: functional; details: PC-3, ip, 120 h, time 5 day, read-out: TGI
[21] = Half life in Wistar rat at 1.5 mg/kg, iv; assay type: ADME, organism-based; details: in vivo
[22] = Clearance in rabbit at 0.81 mg/kg, iv; assay type: ADME, organism-based, Oryctolagus cuniculus; details: in vivo
[23] = Mean residence time (0 to t) in Wistar rat at 1.5 mg/kg, iv; assay type: ADME, organism-based; details: in vivo
Cytochrome P450 3A4 [24] = molecular target: T1, Cytochrome P450 3A4 (Homo sapiens, UniProt P08684); test: Inhibition of CYP3A4 in human liver microsome using testosterone as substrate; assay type: ADME, microsomes
T1 sequence (P08684 whole entry): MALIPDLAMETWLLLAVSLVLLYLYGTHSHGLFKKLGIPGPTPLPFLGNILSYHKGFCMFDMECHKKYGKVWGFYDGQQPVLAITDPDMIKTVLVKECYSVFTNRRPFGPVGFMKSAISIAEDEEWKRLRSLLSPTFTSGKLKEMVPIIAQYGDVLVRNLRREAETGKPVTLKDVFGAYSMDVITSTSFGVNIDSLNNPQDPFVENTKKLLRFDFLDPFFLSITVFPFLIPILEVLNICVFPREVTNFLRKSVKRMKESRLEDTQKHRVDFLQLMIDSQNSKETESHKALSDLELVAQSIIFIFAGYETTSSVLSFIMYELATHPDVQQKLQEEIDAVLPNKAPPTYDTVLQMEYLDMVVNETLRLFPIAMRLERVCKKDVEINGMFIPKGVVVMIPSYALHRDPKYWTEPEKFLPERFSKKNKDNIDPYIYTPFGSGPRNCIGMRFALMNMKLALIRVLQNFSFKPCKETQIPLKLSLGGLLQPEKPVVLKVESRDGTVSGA

Cytochrome P450 2D6 = Cytochrome P450 2D6 (Homo sapiens, UniProt P10635); test: Inhibition of CYP2D6 in human liver microsome using dextromethorphan as substrate; assay type: ADME, microsomes
Sequence of Cytochrome P450 2D6 (P10635 whole entry): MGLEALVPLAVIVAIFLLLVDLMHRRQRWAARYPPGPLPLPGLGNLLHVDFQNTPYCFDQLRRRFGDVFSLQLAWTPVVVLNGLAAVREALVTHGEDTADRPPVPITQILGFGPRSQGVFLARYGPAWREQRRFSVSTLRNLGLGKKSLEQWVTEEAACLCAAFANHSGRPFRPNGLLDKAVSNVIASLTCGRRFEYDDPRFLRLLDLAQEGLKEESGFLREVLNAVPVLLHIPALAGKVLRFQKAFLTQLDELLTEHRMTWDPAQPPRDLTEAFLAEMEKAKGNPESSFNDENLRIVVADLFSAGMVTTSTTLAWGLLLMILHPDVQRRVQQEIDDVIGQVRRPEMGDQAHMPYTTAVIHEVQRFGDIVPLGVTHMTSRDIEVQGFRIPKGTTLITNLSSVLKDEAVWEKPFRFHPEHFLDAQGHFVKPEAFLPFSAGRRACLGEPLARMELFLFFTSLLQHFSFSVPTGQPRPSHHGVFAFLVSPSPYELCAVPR

[25] = Stability of the compound in mouse liver microsome; assay type: ADME; details: microsomes
[26] = Stability of the compound in human liver microsome; assay type: ADME; details: microsomes
[27] = Stability of the compound in mouse liver microsome assessed as half life; assay type: ADME; details: liver microsomes
Cytochrome P450 2B6 = molecular target: T2, Cytochrome P450 2B6 (Homo sapiens, UniProt P20813); test: Drug metabolism assessed as human liver microsome CYP2B6-mediatd metabolism; assay type: ADME; details: microsomes
T2 sequence (P20813 whole entry): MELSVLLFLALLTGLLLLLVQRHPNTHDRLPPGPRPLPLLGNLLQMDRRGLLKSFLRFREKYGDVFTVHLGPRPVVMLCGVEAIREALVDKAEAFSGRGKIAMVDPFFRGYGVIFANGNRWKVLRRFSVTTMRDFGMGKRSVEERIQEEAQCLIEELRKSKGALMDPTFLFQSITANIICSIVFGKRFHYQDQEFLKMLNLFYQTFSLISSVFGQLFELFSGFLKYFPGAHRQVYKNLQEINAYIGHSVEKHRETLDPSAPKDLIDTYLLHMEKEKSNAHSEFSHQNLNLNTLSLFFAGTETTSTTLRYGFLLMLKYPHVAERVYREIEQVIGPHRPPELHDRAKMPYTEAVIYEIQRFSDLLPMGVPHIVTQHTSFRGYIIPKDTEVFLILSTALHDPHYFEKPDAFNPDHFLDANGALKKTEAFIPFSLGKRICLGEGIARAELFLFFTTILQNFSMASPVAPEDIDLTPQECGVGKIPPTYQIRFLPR

Cytochrome P450 3A4 [28] = molecular target: T1, Cytochrome P450 3A4; test: Drug metabolism assessed as human liver microsome CYP3A4-mediatd metabolism; assay type: ADME; details: microsomes
Salmonella typhimurium [29] = test: Mutagenecity in Salmonella typhimurium TA100 in presence of metabolic activation system at 1 ug/ml by Ames test; assay type: toxicity, organism-based; details: salmonella enterica subsp. enterica serovar typhimurium; dose 1 µg/ml
Salmonella typhimurium [30] = test: Mutagenecity in Salmonella typhimurium TA97 in presence of metabolic activation system at 1 ug/ml by Ames test; assay type: toxicity, organism-based; details: salmonella enterica subsp. enterica serovar typhimurium; dose 1 µg/ml
Salmonella typhimurium [31] = test: Mutagenecity in Salmonella typhimurium TA98 in presence of metabolic activation system at 100 ug/ml by Ames test; assay type: toxicity, organism-based; details: salmonella enterica subsp. enterica serovar typhimurium; dose 100 µg/ml
Salmonella typhimurium [32] = test: Mutagenecity in Salmonella typhimurium TA100 without metabolic activation system at 1000 ug/ml by Ames test; assay type: toxicity, organism-based; details: salmonella enterica subsp. enterica serovar typhimurium; dose 1000 µg/ml
Salmonella typhimurium [33] = test: Mutagenecity in Salmonella typhimurium TA97 without metabolic activation system at 1000 ug/ml by Ames test; assay type: toxicity, organism-based; details: salmonella enterica subsp. enterica serovar typhimurium; dose 1000 µg/ml
Salmonella typhimurium [34] = test: Mutagenecity in Salmonella typhimurium TA98 without metabolic activation system at 100 ug/ml by Ames test; assay type: toxicity, organism-based; details: salmonella enterica subsp. enterica serovar typhimurium; dose 100 µg/ml
Cathepsin B = Cathepsin B (Homo sapiens, UniProt P07858); test: Stability of compound assessed as recombinant cathepsin B (unknown origin) mediated hydrolysis; assay type: ADME

CC[C@H](C)[C@@H]([C@@H](CC(=O)N1CCC[C@H]1[C@H](OC)[C@@H](C)C(=O)N[C@H](C)[C@@H](O)c1ccccc1)OC)N(C)C(=O)[C@@H](NC(=O)[C@H](C(C)C)N(C)C(=O)OCc1ccc(NC(=O)[C@H](CCCNC(N)=O)NC(=O)[C@@H](NC(=O)CCCc2cn(CCCNC(=O)[C@H](Cc3ccc(O)cc3)NC(=O)[C@H](Cc3ccccc3)NC(=O)CCC(=O)NCCCCCC(=O)N(CCCC[C@H](NC(=O)N[C@@H](CCC(=O)O)C(=O)O)C(=O)O)Cc3cccc(Cl)c3)nn2)C(C)C)cc1)C(C)C ({GluureaLys(ε-3-ClBenzyl)-Ahx-Suc}-FY[X1]V[Cit][PABC][NMeV]V[Dil][Dolaproine]-X2)
CC50 (CWR22R): 29 nM | CC50 (PC-3 [1]): 27 nM | Activity (PC-3 [2]): Active | AUC(0-inf) [3]: 88000 ng·h/mL | Activity [4]: Non-Toxic | Activity [5]: Non-Toxic | Activity [6]: Non-Toxic | Activity [7]: Non-Toxic | Activity [8]: Non-Toxic | Activity [9]: Non-Toxic | Activity [10]: Non-Toxic | Activity [11]: Non-Toxic | Activity (Oryctolagus cuniculus): Non-Toxic | Activity [12]: Non-Toxic | Activity [13]: Non-Toxic | Activity [14]: Non-Toxic | Activity [15]: Non-Toxic | Activity [16]: Non-Toxic | Activity [17]: Non-Toxic | Activity [18]: Toxic | Activity [19]: Non-Toxic | inhibition in vivo at 0.3 mg/kg [20]: 37.7% | half-life [21]: 4.7 h | clearance [22]: 0.4 mL/min/kg | MRT last [23]: 3.8 h | IC50 (Cytochrome P450 3A4 [24]): 11200 nM | IC50 (Cytochrome P450 2D6): > 25000 nM | Stability [25]: Unstable | Stability [26]: Unstable | half-life [27]: 0.457 h | Drug metabolism (Cytochrome P450 2B6): Metabolite_Notdetected | Drug metabolism (Cytochrome P450 3A4 [28]): Metabolite_Notdetected | Activity (Salmonella typhimurium [29]): Non-Toxic | Activity (Salmonella typhimurium [30]): Non-Toxic | Activity (Salmonella typhimurium [31]): Non-Toxic | Activity (Salmonella typhimurium [32]): Non-Toxic | Activity (Salmonella typhimurium [33]): Non-Toxic | Activity (Salmonella typhimurium [34]): Non-Toxic | Stability (Cathepsin B): Stable
